Source: US20190185339A1, “Zirconium-Based Cluster as a Dentin Tubule Occlusion Agent” (Colgate-Palmolive Company, priority 2017, published 2019)

Experiments:
[1] = Stability in terms of gelation and flocculation (clear or gel); format: physicochemical; details: 1% zirconium oxychloride with varied arginine; incubated 1 day at 50° C., cooled to room temperature
Experimental: In some embodiments, the zirconium oxychloride cluster of the invention is stable at pH 2-6, 3-5, 3-4, 3.5-4.5 or 4-4.5, in solution, e.g., in aqueous solution.
(§1) Samples were prepared according to Table 1. Water was added to zirconium oxychloride (ZrOCl2.8H2O, MW 322.25) in a glass jar to yield a clear solution containing 1% zirconium oxychloride. Under stirring, L-arginine was slowly added to prevent clumping of arginine as well as large fluctuations in localized pH values. The solutions were incubated for 1 day at 50° C. Then the solutions were cooled to room temperature. Solid gel was formed in samples with the molar ratio of arginine to zirconium oxychloride of 2-4.
(§2) The zirconium oxychloride cluster was prepared as described in Example 1. The prepared zirconium oxychloride cluster was purified by gel permeability chromatograph (GPC). GPC column was prepared using Bio-Rad P2 gel with 5 μm particle size. Approximately 10 mL of prepared solution was filtered (0.45 μm) and loaded on the column using a HPLC pump at 0.2 mL/min. The mobile phase of the GPC chromatography was deionized water. Elution fractions were collected in intervals and monitored using SEC-RI. […] The pH of the GPC fraction (1160-1300 min) was 4.5. […] 10 g of this fraction was freeze dried to obtain purified powder for subsequent PXRD analysis.

[2] = solution of zirconium oxychloride which is effective as an antiperspirant; cited from earlier work
[3] = pH of the zirconium oxychloride / arginine solutions; format: physicochemical
Experimental: as §1
A 100 g batch was prepared according to Table 2. 1% w/w zirconium oxychloride (ZrOCl2.8H2O, MW 322.25) and arginine were mixed in aqueous solution with the molar ratio of arginine to zirconium oxychloride of 1:1.
as §2

What does the source list for `[Cl-].[Cl-].[O]=[Zr+2]` [Zr, zirconium oxychloride (ZrOCl2.8H2O, MW 322.25)]?
appearance (clear / gel) [1]: clear; pH of solution [2]: about 0.8; pH ([3]; 1% zirconium oxychloride with varied arginine, incubated 1 day at 50° C., cooled to room temperature): 1.39; pH value ([3]; zirconium oxychloride alone, general statement): < 2
